Results taken from ChEMBL document CHEMBL5344429, “1,3-Substituted β-Carboline Derivatives as Potent Chemotherapy for the Treatment of Cystic Echinococcosis” (J Med Chem, 2023).
The source made the active and inactive calls. The calls are words filed in the database; no cut-off is given here.

Experiments:
Echinococcus granulosus [1] = assay: Parasiticidal activity against Echinococcus granulosus protoscolices […] by eosin exclusion test; assay type: functional; settings: 1152 h, time 48 day
Echinococcus granulosus [2] = assay: Parasiticidal activity against Echinococcus granulosus protoscolices assessed as death rate at 1 uM incubated for 48 hrs by eosin exclusion test; assay type: functional
Echinococcus granulosus [3] = assay: Parasiticidal activity against Echinococcus granulosus microcyst infected in kunming mouse assessed as mean cyst weight at 12.5 mg/kg, ip administered for 14 days; assay type: functional; settings: time 14 day
Echinococcus granulosus [4] = assay: Parasiticidal activity against intraperitoneal cystic Echinococcus granulosus infected in Kunming mouse assessed as reduction in cell count with clear nucleolus at 50 mg/kg, ip administered for 28 days by TEM analysis; assay type: functional, organism-based; settings: time 28.0 day
Echinococcus granulosus [5] = assay: Parasiticidal activity against Echinococcus granulosus protoscolices assessed as body shrank with irregular edge at 5 uM incubated for 4 days by H and E staining based assay; assay type: functional, organism-based; settings: time 4.0 day
Echinococcus granulosus [6] = assay: Parasiticidal activity against Echinococcus granulosus microcyst infected in kunming mouse assessed as reduction in cyst weight at 50 mg/kg, ip administered for 28 days relative to control; assay type: functional; design: scale not given: the % may be the effect or the level left; settings: time 28 day
Echinococcus granulosus [7] = assay: Parasiticidal activity against Echinococcus granulosus microcyst infected in kunming mouse assessed as mean cyst weight at 12.5 mg/kg, ip administered for 28 days; assay type: functional; settings: time 28 day
Echinococcus granulosus [8] = assay: Parasiticidal activity against Echinococcus granulosus microcyst infected in kunming mouse assessed as mean cyst weight at 25 mg/kg, ip administered for 28 days; assay type: functional; settings: time 28 day
Echinococcus granulosus [9] = assay: Parasiticidal activity against Echinococcus granulosus microcyst infected in kunming mouse assessed as reduction in cyst weight at 50 mg/kg, ip administered for 14 days relative to control; assay type: functional; design: scale not given: the % may be the effect or the level left; settings: time 14 day
Echinococcus granulosus [10] = assay: Parasiticidal activity against Echinococcus granulosus protoscolices assessed as survival rate at 1 uM incubated for 48 hrs by eosin exclusion test; assay type: functional
Echinococcus granulosus [11] = assay: Parasiticidal activity against Echinococcus granulosus microcyst infected in kunming mouse assessed as mean cyst weight at 50 mg/kg, ip administered for 14 days; assay type: functional; settings: time 14 day
Echinococcus granulosus [12] = assay: Parasiticidal activity against Echinococcus granulosus microcyst infected in kunming mouse assessed as mean cyst weight at 25 mg/kg, ip administered for 14 days; assay type: functional; settings: time 14 day
Echinococcus granulosus [13] = assay: Parasiticidal activity against Echinococcus granulosus protoscolices assessed as outer skin and hooks fall off at 5 uM incubated for 2 days by scanning electron microscopy; assay type: functional, organism-based; settings: time 2.0 day
Echinococcus granulosus [14] = assay: Parasiticidal activity against Echinococcus granulosus assessed as cyst destruction at 100 uM incubated for 4 days by scanning electron microscopy; assay type: functional, organism-based; settings: time 4.0 day
Echinococcus granulosus [15] = assay: Parasiticidal activity against Echinococcus granulosus microcyst infected in kunming mouse assessed as reduction in cyst weight at 12.5 mg/kg, ip administered for 14 days relative to control; assay type: functional; design: scale not given: the % may be the effect or the level left; settings: time 14 day
Echinococcus granulosus [16] = assay: Parasiticidal activity against Echinococcus granulosus microcyst infected in kunming mouse assessed as mean cyst weight at 50 mg/kg, ip administered for 28 days; assay type: functional; settings: time 28 day
Echinococcus granulosus [17] = assay: Parasiticidal activity against Echinococcus granulosus microcyst infected in kunming mouse assessed as reduction in cyst weight at 25 mg/kg, ip administered for 14 days relative to control; assay type: functional; design: scale not given: the % may be the effect or the level left; settings: time 14 day
Echinococcus granulosus [18] = assay: Parasiticidal activity against Echinococcus granulosus protoscolices assessed as appearance of relative completion of sucker at 5 uM incubated for 2 days by scanning electron microscopy; assay type: functional, organism-based; settings: time 2.0 day
Echinococcus granulosus [19] = assay: Parasiticidal activity against Echinococcus granulosus microcyst infected in kunming mouse assessed as reduction in cyst weight at 25 mg/kg, ip administered for 28 days relative to control; assay type: functional; design: scale not given: the % may be the effect or the level left; settings: time 28 day
Echinococcus granulosus [20] = assay: Parasiticidal activity against Echinococcus granulosus protoscolices assessed as appearance of partial shedding at 5 uM incubated for 4 days by H and E staining based assay; assay type: functional, organism-based; settings: time 4.0 day
Echinococcus granulosus [21] = assay: Parasiticidal activity against intraperitoneal cystic Echinococcus granulosus infected in Kunming mouse assessed as decrease number of microvilli at 50 mg/kg, ip administered for 28 days by TEM analysis; assay type: functional, organism-based; settings: time 28.0 day
Echinococcus granulosus [22] = assay: Parasiticidal activity against intraperitoneal cystic Echinococcus granulosus infected in Kunming mouse assessed as appearance of unclear cortex at 50 mg/kg, ip administered for 28 days by TEM analysis; assay type: functional, organism-based; settings: time 28.0 day
Echinococcus granulosus [23] = assay: Parasiticidal activity against Echinococcus granulosus microcyst infected in kunming mouse assessed as reduction in cyst weight at 12.5 mg/kg, ip administered for 28 days relative to control; assay type: functional; design: scale not given: the % may be the effect or the level left; settings: time 28 day

For COc1cccc(-c2nc(C(=O)Nc3ccc(CN4CCC(N5CCCCC5)CC4)cc3)cc3c2[nH]c2ccccc23)c1OC, the LC50 (Echinococcus granulosus [1]) was 5.8 µM and the Activity (Echinococcus granulosus [2]) was “Active”.
With COc1ccc(-c2nc(C(=O)Nc3ccc(CN4CCC(N5CCCCC5)CC4)cc3)cc3c2[nH]c2ccccc23)cc1OC the LC50 (Echinococcus granulosus [1]) was 6.49 µM and the Activity (Echinococcus granulosus [2]) was “Active”.
For CCCSc1ccc2[nH]c(NC(=O)OC)nc2c1 [ALBENDAZOLE], the LC50 (Echinococcus granulosus [1]) was 154 µM, the Activity (Echinococcus granulosus [3]) was 29.5 mg and the Activity (Echinococcus granulosus [4]) was “Active”. The Activity (Echinococcus granulosus [5]) was “Active”, the Activity (Echinococcus granulosus [6]) was 55.4% and the Activity (Echinococcus granulosus [7]) was 26.7 mg. It also gave an Activity (Echinococcus granulosus [8]) of 25.3 mg, an Activity (Echinococcus granulosus [9]) of 54.7% and an Activity (Echinococcus granulosus [10]) of 100%. For the same compound, the Activity (Echinococcus granulosus [11]) was 23.3 mg, the Activity (Echinococcus granulosus [12]) was 26.2 mg and the Activity (Echinococcus granulosus [13]) was “Active”. For the same compound, the Activity (Echinococcus granulosus [14]) was “inactive”, the Activity (Echinococcus granulosus [15]) was 42.77% and the Activity (Echinococcus granulosus [16]) was 24.2 mg. For the same compound, the Activity (Echinococcus granulosus [17]) was 49.16%, the Activity (Echinococcus granulosus [18]) was “Active” and the Activity (Echinococcus granulosus [19]) was 53.45%. The Activity (Echinococcus granulosus [20]) was “Active”, the Activity (Echinococcus granulosus [21]) was “Active” and the Activity (Echinococcus granulosus [22]) was “Active”. It also gave an Activity (Echinococcus granulosus [23]) of 50.9%.
With COc1ccc(-c2nc(C(=O)Nc3ccc(CN4CCC(N5CCCCC5)CC4)cc3)cc3c2[nH]c2ccccc23)cc1 the LC50 (Echinococcus granulosus [1]) was 7.67 µM and the Activity (Echinococcus granulosus [2]) was “Active”.
